Converted amounts (≈) assume the structure as drawn. Read-outs that look alike come from different tables or passages of the source.
What was measured:
[1] = Particle size distribution (PSD) study, laser particle size analyzer; format: physicochemical; details: wet method, dispersion medium Isopar G
From the text: The result of particle size distribution (PSD) in the present disclosure was acquired by laser particle size analyzer with S3500 model from Microtrac company. The Microtrac S3500 is equipped with a SDC (Sample Delivery Controller) sampling system. This experiment uses a wet method and the dispersion medium is Isopar G. The method and parameters of the laser particle size analyzer are as follows:
The particle size distributions (PSD) of crystalline form A and crystalline form 1 and form 2 in CN101821269B were studied.

[2] = cited from earlier work; for Solubility (in words): from CN101821270A and CN101821269B
[3] = Mechanical stability study (grinding, XRPD before and after); format: physicochemical; details: ground for 5 minutes
Protocol: Crystalline form A of present disclosure was ground, and analyzed by XRPD before and after being ground for 5 minutes.

[4] = Physical stability study (storage, XRPD before and after); format: physicochemical; details: 1 month
Protocol: Crystalline form A was stored at 25° C./60% RH and 40° C./75% RH for one month.

[5] = Solubility study in SGF, FeSSIF, FaSSIF and water; format: physicochemical
Protocol: Crystalline form A samples were dissolved into 1 mL of simulated gastric fluid (SGF), fed state simulated intestinal fluid (FeSSIF, pH 5.0), fasted state simulated intestinal fluid (FaSSIF, pH 6.5) and water to test the corresponding solubility.

D10 [1] | D50 [1] | D90 [1] | MV (average based on volume) [1] | XRPD pattern change before and after grinding [3] | Crystalline form change ([4]; 25° C./60% RH) | Crystalline form change ([4]; 40° C./75% RH) | Observation (dissolution) ([5]; 11.2 mg in 1 mL water) | Observation (dissolution) ([5]; 11.3 mg in 1 mL FeSSIF, pH 5.0) | Observation (dissolution) ([5]; 11.5 mg in 1 mL FaSSIF, pH 6.5) | Observation (dissolution) ([5]; 12.4 mg in 1 mL SGF) | Weight of sample dissolved ([5]; in 1 mL FaSSIF, pH 6.5) | Weight of sample dissolved ([5]; in 1 mL FeSSIF, pH 5.0) | Weight of sample dissolved ([5]; in 1 mL SGF) | Weight of sample dissolved ([5]; in 1 mL water) | Solubility relative to crystalline forms disclosed in the prior art ([5]; in SGF, FaSSIF, FeSSIF and water) | solubility ([5]; thermodynamic from solid, in SGF, FaSSIF, FeSSIF and water) | SMILES | Solubility (in words) ([2]; listed as Crystalline form 1) | Solubility (in words) ([2]; listed as crystalline form 2) | solubility ([2]; after 24 hours in SGF, from CN105130961A)
11.54 μm | 18.89 μm | 31.97 μm | 20.89 μm |  |  |  |  |  |  |  |  |  |  |  |  |  | C[C@]1(c2nc3cccc(C(N)=O)c3[nH]2)CCCN1 [Form 1, 2-[(2R)-2-methyl-2-pyrrolidinyl]-1H-benzimidazole-7-carboxamide] | better solubility |  | 
8.99 μm | 59.08 μm | 231.9 μm | 94.50 μm |  |  |  |  |  |  |  |  |  |  |  |  |  | C[C@]1(c2nc3cccc(C(N)=O)c3[nH]2)CCCN1 [Form 2, 2-[(2R)-2-methyl-2-pyrrolidinyl]-1H-benzimidazole-7-carboxamide] |  | poor solubility | 
41.6 μm | 278.6 μm | 1118 μm | 407.2 μm | no significant change | No change | No change | Completely | Completely | Completely | Completely | 11.5 mg | 11.3 mg | 12.4 mg | 11.2 mg | at least 2 times | > 10000 µg/mL | C[C@]1(c2nc3cccc(C(N)=O)c3[nH]2)CCCN1 [Form A, 2-[(2R)-2-methyl-2-pyrrolidinyl]-1H-benzimidazole-7-carboxamide] |  |  | 
 |  |  |  |  |  |  |  |  |  |  |  |  |  |  |  |  | C[C@]1(c2nc3c(C(N)=O)cccc3[nH]2)CCCN1 [crystalline form B, 2-[(2R)-2-methyl-2-pyrrolidinyl]-1H-benzimidazole-7-carboxamide] |  |  | 6000 µg/mL (≈ 24.6 mM)
